Tested on: human PBMC, CCR5-tropic HIV-1 replication, RT activity
Assay: antiviral activity against R5-tropic HIV-1 in PBMC – cell-based, CCR5-tropic HIV-1, primary PBMCs, dose response (AID 504503)

Q: With Cc1c2c(=O)n(-c3nc4ccccc4s3)nc-2cc(O)n1C1CC1 as the compound, how does the IC50 read?
A: Its IC50 is 2.17 µM.

Q: How did the IC50 turn out when COc1ccccc1Cn1c(O)cc2nn(-c3nc4ccccc4s3)c(=O)c-2c1C was run?
A: Its IC50 is 3.93 µM.

Q: With Cc1c2c(=O)n(-c3nc4ccccc4s3)nc-2cc(O)n1Cc1cccs1 as the compound, how does the IC50 read?
A: Its IC50 is 10.5 µM.

Q: For COc1ccc(CCn2c(O)cc3nn(-c4nc5ccccc5s4)c(=O)c-3c2C)cc1, which IC50 is on record?
A: The IC50 was 5.11 µM.

Q: With Cc1c2c(=O)n(-c3nc4ccccc4s3)nc-2cc(O)n1Cc1ccc(F)cc1 as the compound, how does the IC50 read?
A: The IC50 was 6.8 µM.

Q: How did the IC50 turn out when Cc1c2c(=O)n(-c3nc4ccccc4s3)nc-2cc(O)n1CCc1cccs1 was run?
A: The IC50 was 16.6 µM.

Q: For Cc1c2c(=O)n(-c3nc4ccccc4s3)nc-2cc(O)n1Cc1cccnc1, which IC50 is on record?
A: The IC50 was 2.82 µM.

Q: With Cc1c2c(=O)n(-c3nc4ccccc4s3)nc-2cc(O)n1Cc1ccccc1Cl as the compound, how does the IC50 read?
A: The IC50 was 5.16 µM.

Q: Cc1c2c(=O)n(-c3nc4ccccc4s3)nc-2cc(O)n1CCc1ccc(O)cc1 was tested. Which IC50 did it give?
A: Its IC50 is 1.29 µM.

Q: Which IC50 does the source give for Cc1c2c(=O)n(-c3nc4ccccc4s3)nc-2cc(O)n1Cc1ccncc1 here?
A: Its IC50 is 1.6 µM.

Q: With Cc1c2c(=O)n(-c3nc4ccccc4s3)nc-2cc(O)n1CCC(C)C as the compound, how does the IC50 read?
A: The IC50 was 5.37 µM.

Q: Which IC50 does the source give for COc1ccc(Cn2c(O)cc3nn(-c4nc5ccccc5s4)c(=O)c-3c2C)cc1 here?
A: Its IC50 is 4.88 µM.

Source: PubChem BioAssay AID504503 (Southern Research Specialized Biocontainment Screening …, 2011)
